The record followed here is PubChem BioAssay (NCI).

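Five compound concentrations were applied to cells in 96-well plates for 48 hours; endpoints were derived by simple linear interpolation of the resulting dose-response curve. TGI: concentration producing complete growth inhibition.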 A value given as a limit tells only on which side of the number the result lay.

Among the test systems are 786-0 renal; DMS 114 small cell lung; HCT-116 colon; HOP-92 NSCLC; M14 melanoma; M19-MEL melanoma; SW-620 colon; U251 CNS; UACC-62 melanoma; UO-31 renal; XF 498 CNS; COLO 205 colon.
Common to all, as to assay: NCI-60 cell line screen, 48 h

On to `CC1=C(CO)C(=O)OC(C(C)C2CCC3C4CC5OC56C(O)C(N5CC5)=CC(=O)C6(C)C4CCC23C)C1` (configuration not stated), for which the TGI in the experiment with 786-0 renal is 17.8 µM; in the experiment with DMS 114 small cell lung, 5.85 µM; in the experiment with HCT-116 colon, 12.2 µM; with HOP-92 NSCLC it was 19.3 µM; in the experiment with M14 melanoma, 24.6 µM; in the experiment on M19-MEL melanoma, 23.5 µM. For the same molecule, the TGI is 6.4 µM in the experiment on SW-620 colon; 15.1 µM in the experiment with U251 CNS; 23.8 µM in the experiment with UACC-62 melanoma; 25.7 µM in the experiment on UO-31 renal; 16.4 µM with XF 498 CNS.

As to `N#Cc1ccccc1NC(=O)C(=O)C(C(=O)c1ccccc1F)C1OC(=O)c2ccccc21` (configuration not stated), the TGI in the experiment with COLO 205 colon, in the experiment with DMS 114 small cell lung, with HCT-116 colon, in the experiment with HOP-92 NSCLC, in the experiment on M14 melanoma and in the experiment with M19-MEL melanoma was > 100 µM in each case. Moreover, the TGI in the experiment with SW-620 colon was > 100 µM; with U251 CNS, 40.8 µM; in the experiment with UACC-62 melanoma it was > 100 µM; in the experiment on UO-31 renal it was > 100 µM; in the experiment with XF 498 CNS, > 100 µM.
